# Reference: US20230286925A1, “PHENYL TRIAZOLE MLL1-WDR5 PROTEIN-PROTEIN INTERACTION INHIBITOR” (HUYABIO International, LLC, priority 2022, published 2023)
# Read-outs that look alike come from different tables or passages of the source.
# Experiments:
# [1] = target: MLL1-WDR5 protein-protein interaction (Homo sapiens (Human), UniProt P61964); assay: WDR5 TR-FRET assay of inhibition against MLL1-WDR5 protein-protein interaction; type: binding
# Protocol: WDR5 TR-FRET Assay Procedure: Stock compounds were transferred to the assay plate by Echo Liquid Handler. Reactions were performed in the assay buffer (1×PBS, 300 mM NaCl, 0.5 mM TCEP, 0.1% CHAPS) containing 5 nM WDR5 protein, 10 nM peptide (Ac-ARTEVHLRKS-[Ahx-Ahx] [C]-Alexa Fluor 488-NH2) and 0.25 nM Tb-anti His antibody (Tb-Ab) in 384-well white plate (PerkinElmer) with a final volume of 20 μl. Compounds were incubated with WDR5 protein for 30 min at room temperature. Plates were covered, protected from light and incubated for 60 min at room temperature after adding the peptide and Tb-Ab. EnVision Multimode Plate Reader (PerkinElmer) was used for the TR-FRET assay with excitation wavelength at 340 nm and emission wavelength at 495 and 520 nm. The ratio of the 520/495 wavelengths were used to assess the degree of the FRET signal. IC50 was calculated by fitting the inhibition data using XLfit software to sigmoidal dose-response model.
# Biphenyl compound DDO-2084 was reported to be a small molecule inhibitor that can inhibit MLL1-WDR5 protein-protein interaction, reduce MLL1 enzyme catalytic activity, and downregulate the expression of Hox and Meis-1 genes (Eur. J. Med. Chem. 2016, 124, 480-489). DDO-2084 is used as a positive control compound.
# MV-411 cells = assay: Anti-proliferative activity against leukemia cells (CellTiterGlo viability, 72 hrs); type: cell-based
# Protocol: Procedure: MV-411 or Molm-13 cells were seeded into 384 well plates at 2000 cells/well density in 50 uL according plate map and were allowed to naturally sediment by waiting about 30 min in Clean Bench. Next, plated cells were centrifuged for 1 min at 1000 rpm and the excess cells were transferred into the flasks for further culture. Cells in the assay plates were incubated (at least 4 hrs) at 37° C., 5% CO2 for next process followed by adding the compounds as the plate map indicated. The tests were performed in duplicates with treatment of compounds at 10 pts 3 fold titration in 384 well plates. Taxol was as positive control while DMSO as negative control. To rule out edge effect, the wells on the edge were not seeded and therefore one 384 well plate holds 13 compounds. Cells viability was measured 72 hrs after incubation with compounds and using CellTiterGlo (promega) viability assay according to manufactory's instruction to check the ATP production in each well.
# Experiments on anti-proliferative activity against leukemia cells were conducted with some of the compounds of the invention.
# [2] = Table 7, read-out: WDR5 TR-FRET Assay (IC50 nM)
# [3] = MV4-11, MV-411 human acute monocytic leukemia cell, Table 7
# [4] = WDR5 TR-FRET, 5 nM WDR5 protein, 10 nM peptide, read-out: MLL1-WDR5 PPI inhibitory activity
# [5] = MV4-11, MV-411 human acute monocytic leukemia cell, Table 6
# [6] = MV-411 human acute monocytic leukemia cell, Table 6
Molecule,"IC50 [1, 2] [nM]",GI50 (MV-411 cells; [3]) [µM],"IC50 [1, 4] [nM]",GI50 (MV-411 cells; [5]) [µM],GI50 (MV-411 cells; [6]) [µM]
"C[C@@H]1CN(c2cc(F)c(-c3cccc(CN4CCOCC4)c3)cc2Nc2ncnc(Cl)c2N)C[C@H](C)N1C [DDO-2213_019, 6-chloro-N4-(6-fluoro-3′-(morpholinomethyl)-4-((3S,5R)-3,4,5-trimethylpiperazin-1-yl)-[1,1′-biphenyl]-3-yl)pyrimidine-4,5-diamine]",215,6.98,–,–,–
CN1CCN(c2ccc(-n3cc(C(=O)NCCCN4CCOCC4)nn3)cc2NC(=O)c2ccc(F)c([N+](=O)[O-])c2)CC1 [HYBI_040],–,–,828,0.21,–
CN1CCN(c2ccc(-n3cc(C(=O)NCCCN4CCOCC4)nn3)cc2NC(=O)c2cc(O)cc(C(F)(F)F)c2)CC1 [HYBI_046],–,–,271,10.5,–
Cc1cc(C(=O)Nc2cc(-n3cc(C(=O)NCCCN4CCOCC4)nn3)ccc2N2CCN(C)CC2)cc(C)c1F [HYBI_037],–,–,109,8.38,–
"C[C@H]1CN(c2cc(F)c(-c3cnc(N4CCOCC4)nc3)cc2Nc2ncnc(Cl)c2N)CCN1C [DDO-2213_020, (S)-6-chloro-N4-(2-(3,4-dimethylpiperazin-1-yl)-4-fluoro-5-(2-morpholinopyrimidin-5-yl)phenyl)pyrimidine-4,5-diamine]",7.44,5.21,–,–,–
Cc1c(F)c(N)cc(C(=O)Nc2cc(-n3cc(C(=O)NCCCN4CCOCC4)nn3)c(F)cc2N2C[C@@H](C)N(C)[C@@H](C)C2)c1Cl [HYBI_028],–,–,5.24,30.9,–
Cc1c(F)c(N)cc(C(=O)Nc2cc(-n3cc(C(=O)N4CCOCC4)nn3)c(F)cc2N2C[C@@H](C)N(C)[C@@H](C)C2)c1Cl [HYBI_083],–,–,3.08,40.2,–
"Cc1c(F)c(N)cc(C(=O)Nc2cc(-n3cc(C(=O)OCC(C)C)nn3)ccc2N2CCN(C)CC2)c1Cl [HYBI_003, isobutyl 1-(3-(5-amino-2-chloro-4-fluoro-3-methylbenzamido)-4-(4-methylpiperazin-1-yl)phenyl)-1H-1,2,3-triazole-4-carboxylate]",–,–,15.6,3.41,–
"C[C@H]1CN(c2cc(F)c(-c3ccc(C(=O)N(C)C)cc3)cc2Nc2ncnc(Cl)c2N)CCN1C [DDO-2213_001, (S)-5′-((5-amino-6-chloropyrimidin-4-yl)amino)-4′-(3,4-dimethylpiperazin-1-yl)-2′-fluoro-N,N-dimethyl-[1,1′-biphenyl]-4-carboxamide]",11.1,11.6,–,–,–
"C[C@@H]1CN(c2cc(F)c(-c3ccc(NC(=O)C4CCCCC4)cc3)cc2Nc2ncnc(Cl)c2N)C[C@H](C)N1C [DDO-2213_006, N-(5′-((5-amino-6-chloropyrimidin-4-yl)amino)-2′-fluoro-4′-((3S,5R)-3,4,5-trimethylpiperazin-1-yl)-[1,1′-biphenyl]-4-yl)cyclohexanecarboxamide]",38.6,6.09,–,–,–
Cc1cc(C)cc(C(=O)Nc2cc(-n3cc(C(=O)NCCCN4CCOCC4)nn3)ccc2N2CCN(C)CC2)c1 [HYBI_044],–,–,903,64.8,–
Cc1c(F)c(N)cc(C(=O)Nc2cc(-n3cc(C(=O)OCC4CCN(C)CC4)nn3)ccc2N2CCN(C)CC2)c1Cl [HYBI_016],–,–,20.6,7.1,–
Cc1c(F)c(N)cc(C(=O)Nc2cc(-n3cc(C(=O)NCCCN4CCOCC4)nn3)c(F)cc2N2CCN(C)CC2)c1Cl [HYBI_023],–,–,19.8,32,–
Cc1c(F)c(N)cc(C(=O)Nc2cc(-n3cc(C(=O)NCCCN4CCOCC4)nn3)ccc2N2CCN(C)[C@@H](C)C2)c1Cl [HYBI_020],–,–,8.23,8.36,–
"CCCC(=O)Nc1ccc(-c2cc(Nc3ncnc(Cl)c3N)c(N3C[C@@H](C)N(C)[C@@H](C)C3)cc2F)cc1 [DDO-2213_007, N-(5′-((5-amino-6-chloropyrimidin-4-yl)amino)-2′-fluoro-4′-((3S,5R)-3,4,5-trimethylpiperazin-1-yl)-[1,1′-biphenyl]-4-yl)butyramide]",51.3,11.5,–,–,–
"1-(3-(5-amino-2-chloro-4-fluoro-3-methylbenzamido)-4-(4-methylpiperazin-1-yl)phenyl)-N-(2-ethoxyethyl)-1H-1,2,3-triazole-4-carboxamide [HYBI_002]",–,–,44.2,–,6.31
CN1CCN(c2ccc(-n3cc(C(=O)NCCCN4CCOCC4)nn3)cc2NC(=O)c2cc(Cl)cc(Cl)c2)CC1 [HYBI_045],–,–,384,4.15,–
"C[C@@H]1CN(c2cc(F)c(C3=CCCN(c4ncc(CN5CCOCC5)cn4)C3)cc2Nc2ncnc(Cl)c2N)C[C@H](C)N1C [DDO-2213_026, 6-chloro-N^4-(4-fluoro-5-(1-(5-(morpholinomethyl)pyrimidin-2-yl)-1,2,5,6-tetrahydropyridin-3-yl)-2-((3S,5R)-3,4,5-trimethylpiperazin-1-yl)phenyl)pyrimidine-4,5-diamine]",18.6,12.7,–,–,–
"C[C@@H]1CN(c2cc(F)c(-c3ccnc(N4CCOCC4)n3)cc2Nc2ncnc(Cl)c2N)C[C@H](C)N1C [DDO-2213_024, 6-chloro-N4-(4-fluoro-5-(2-morpholinopyrimidin-4-yl)-2-((3S,5R)-3,4,5-trimethylpiperazin-1-yl)phenyl)pyrimidine-4,5-diamine]",15,18.5,–,–,–
Cc1c(F)c(N)cc(C(=O)Nc2cc(-n3cc(C(=O)NCCCN4CCN(C)CC4)nn3)c(F)cc2N2C[C@@H](C)N(C)[C@@H](C)C2)c1Cl [HYBI_101],–,–,3.65,10.5,–
Cc1c(F)ccc(C(=O)Nc2cc(-n3cc(C(=O)NCCCN4CCOCC4)nn3)ccc2N2CCN(C)CC2)c1Cl [HYBI_038],–,–,185,17.5,–
Cc1c(F)c(N)cc(C(=O)Nc2cc(-n3cc(C(=O)N4CCN(C)CC4)nn3)c(F)cc2N2C[C@@H](C)N(C)[C@@H](C)C2)c1Cl [HYBI_084],–,–,4.72,3.35,–
COc1ccc(COC(=O)c2cn(-c3ccc(N4CCN(C)CC4)c(NC(=O)c4cc(N)c(F)c(C)c4Cl)c3)nn2)cc1 [HYBI_010],–,–,9.62,5.95,–
Cc1c(F)ccc(C(=O)Nc2cc(-n3cc(C(=O)NCCCN4CCOCC4)nn3)c(F)cc2N2CCN(C)CC2)c1Cl [HYBI_053],–,–,19.4,–,5.69
Cc1c(F)c(N)cc(C(=O)Nc2cc(-n3cc(C(=O)NC4CCCCC4)nn3)c(F)cc2N2C[C@@H](C)N(C)[C@@H](C)C2)c1Cl [HYBI_085],–,–,3.86,2.51,–
"CC(C)NC(=O)c1ccc(-c2cc(Nc3ncnc(Cl)c3N)c(N3C[C@@H](C)N(C)[C@@H](C)C3)cc2F)cc1 [DDO-2213_004, 5′-((5-amino-6-chloropyrimidin-4-yl)amino)-2′-fluoro-N-isopropyl-4′-((3S,5R)-3,4,5-trimethylpiperazin-1-yl)-[1,1′-biphenyl]-4-carboxamide]",68.8,14.8,–,–,–
"C[C@@H]1CN(c2cc(F)c(-c3ccc(OCC4CC4)nc3)cc2Nc2ncnc(Cl)c2N)C[C@H](C)N1C [DDO-2213_022, 6-chloro-N4-(5-(6-(cyclopropylmethoxy)pyridin-3-yl)-4-fluoro-2-((3S,5R)-3,4,5-trimethylpiperazin-1-yl)phenyl)pyrimidine-4,5-diamine]",41.2,3.68,–,–,–
Cc1c(F)c(N)cc(C(=O)Nc2cc(-n3cc(C(=O)NCCCN4CCOCC4)nn3)ccc2N2CCCN(C)CC2)c1Cl [HYBI_022],–,–,62.3,17.2,–
